Experimental data as given in patent US8039486B2, “Indole, azaindole and related heterocyclic N-substituted piperazine derivatives” (priority 2003, dated 2011).

Tested on: HIV-1 single-round infectious reporter virus
Assay: Single-round infectious HIV-1 luciferase reporter virus infection of HeLa CD4 cells
Type: cell-based
Conditions: Human immunodeficiency virus 1, HeLa, 72 h, read-out: EC50 Group from Table 1
Experimental: • Virus production—Human embryonic Kidney cell line, 293, was propagated in Dulbecco's Modified Eagle Medium (Invitrogen, Carlsbad, Calif.) containing 10% fetal Bovine serum (FBS, Sigma, St. Louis, Mo.). • Virus infection—Human epithelial cell line, HeLa, expressing the HIV-1 receptor CD4 was propagated in Dulbecco's Modified Eagle Medium (Invitrogen, Carlsbad, Calif.) containing 10% fetal Bovine serum (FBS, Sigma, St. Louis, Mo.) and supplemented with 0.2 mg/mL Geneticin (Invitrogen, Carlsbad, Calif.). Virus-Single-round infectious reporter virus was produced by co-transfecting human embryonic Kidney 293 cells with an HIV-1 envelope DNA expression vector and a proviral cDNA containing an envelope deletion mutation and the luciferase reporter gene inserted in place of HIV-1 nef sequences (Chen et al, Ref 41). Transfections were performed using lipofectAMINE PLUS reagent as described by the manufacturer (Invitrogen, Carlsbad, Calif.). Experiment • 1. HeLa CD4 cells were plated in 96 well plates at a cell density of 1×10^4 cells per well in 100 μl Dulbecco's Modified Eagle Medium containing 10% fetal Bovine serum and incubated overnight. • 2. Compound was added in a 2 μl dimethylsulfoxide solution, so that the final assay concentration would be ≦10 μM. • 3. 100 μl of single-round infectious reporter virus in Dulbecco's Modified Eagle Medium was then added to the plated cells and compound at an approximate multiplicity of infection (MOI) of 0.01, resulting in a final volume of 200 μl per well. • 4. Virally-infected cells were incubated at 37 degrees Celsius, in a CO2 incubator, and harvested 72 h after infection. • 5. Viral infection was monitored by measuring luciferase expression from viral DNA in the infected cells using a luciferase reporter gene assay kit, as described by the manufacturer (Roche Molecular Biochemicals, Indianapolis, Ind.). Infected cell supernatants were removed and 50 μl of lysis buffer was added per well. After 15 minutes, 50 μl of freshly-reconstituted luciferase assay reagent was added per well. Luciferase activity was then quantified by measuring luminescence using a Wallac microbeta scintillation counter. • 6. The percent inhibition for each compound was calculated by quantifying the level of luciferase expression in cells infected in the presence of each compound as a percentage of that observed for cells infected in the absence of compound and subtracting such a determined value from 100. • 7. An EC50 provides a method for comparing the antiviral potency of the compounds of this invention. The effective concentration for fifty percent inhibition (EC50) was calculated with the Microsoft Excel Xlfit curve fitting software. For each compound, curves were generated from percent inhibition calculated at 10 different concentrations by using a four paramenter logistic model (model 205). Table 1 is the key for the data in Table 2. Results

Row | Structure (SMILES) | EC50 [nM]
1 | COc1cnc(-n2cnc(C)n2)c2[nH]cc(C(=O)C(=O)N3CCN(c4nc(N)cc5ccccc45)CC3)c12 [Example 65] | < 1000
2 | COc1cnc(-n2cnc(C)n2)c2[nH]cc(C(=O)C(=O)N3CCN(c4nc(Cl)cc5ccccc45)CC3)c12 [Example 66] | < 1000
3 | COc1cnc(-n2ccnn2)c2[nH]cc(C(=O)C(=O)N3CCN(c4nc(Cl)cc5ccccc45)CC3)c12 [Example 67] | < 1000
4 | O=C(C(=O)N1CCN(c2nc(Cl)cc3ccccc23)CC1)c1c[nH]c2c(-n3ccnn3)ncc(F)c12 [Example 68] | < 1000
5 | COc1cnc(-n2cnc(C#N)n2)c2[nH]cc(C(=O)C(=O)N3CCN(c4ncnc5ccccc45)CC3)c12 [Example 69] | < 1000
6 | COc1cnc(-n2cnc(C(N)=O)n2)c2[nH]cc(C(=O)C(=O)N3CCN(c4ncnc5ccccc45)CC3)c12 [Example 70] | < 1000
7 | O=C(C(=O)N1CCN(c2nccc3ccccc23)CC1)c1c[nH]c2c(-c3ccccn3)ncc(F)c12 [Example 72] | < 1000
8 | O=C(C(=O)N1CCN(c2ncnc3ccccc23)CC1)c1c[nH]c2c(Br)ncc(F)c12 [Example 73] | < 1000
9 | COc1cnc(Cl)c2[nH]cc(C(=O)C(=O)N3CCN(c4ncnc5ccccc45)CC3)c12 [Example 75] | < 1000
10 | O=C(C(=O)N1CCN(c2nncc3ccccc23)CC1)c1c[nH]c2c(-c3ccccn3)ncc(F)c12 [Example 77] | < 1000
11 | O=C(C(=O)N1CCN(c2nncc3ccccc23)CC1)c1c[nH]c2c(-c3cnccn3)ncc(F)c12 [Example 78] | < 1000
12 | O=C(C(=O)N1CCN(c2ncnc3ccccc23)CC1)c1c[nH]c2c(-c3ccncc3)ncc(F)c12 [Example 79] | 1000 to 5000
13 | COc1cnc(-c2cncnc2)c2[nH]cc(C(=O)C(=O)N3CCN(c4ncnc5ccccc45)CC3)c12 [Example 80] | < 1000
14 | O=C(C(=O)N1CCN(c2ncnc3ccccc23)CC1)c1c[nH]c2c(-c3cncnc3)ncc(F)c12 [Example 81] | < 1000
15 | COc1ncc(-c2ncc(F)c3c(C(=O)C(=O)N4CCN(c5ncnc6ccccc56)CC4)c[nH]c23)cn1 [Example 82] | < 1000
16 | O=C(C(=O)N1CCN(c2ncnc3ccccc23)CC1)c1c[nH]c2c(-c3cccnc3)ncc(F)c12 [Example 83] | < 1000
17 | O=C(C(=O)N1CCN(c2ncnc3ccccc23)CC1)c1c[nH]c2c(-c3ncccn3)ncc(F)c12 [Example 84] | < 1000
18 | COc1cnc(-n2cncn2)c2[nH]cc(C(=O)C(=O)N3CCN(c4ccnc5ccccc45)CC3)c12 [Example 85] | < 1000
19 | COc1cc(N2CCN(C(=O)C(=O)c3c[nH]c4c(-n5cncn5)ncc(OC)c34)CC2)c2cc(C)ccc2n1 [Example 86] | < 1000
20 | N#Cc1ncc(F)c2c(C(=O)C(=O)N3CCN(c4nccc5ccccc45)CC3)c[nH]c12 [Example 87] | < 1000
21 | O=C(C(=O)N1CCN(c2nccc3ccccc23)CC1)c1c[nH]c2c(-c3nc(-c4ccccc4)n[nH]3)ncc(F)c12 [Example 88] | < 1000
22 | N=C(NNC(=O)c1ccccc1)c1ncc(F)c2c(C(=O)C(=O)N3CCN(c4nccc5ccccc45)CC3)c[nH]c12 [Example 89] | < 1000
23 | COc1cnc(-n2cnc(C)n2)c2[nH]cc(C(=O)C(=O)N3CCN(c4ccc5ccccc5n4)CC3)c12 [Example 90] | < 1000
24 | O=C(C(=O)N1CCN(c2ccc3ccccc3n2)CC1)c1c[nH]c2c(-n3ccnn3)ncc(F)c12 [Example 91] | < 1000
25 | O=C(C(=O)N1CCN(c2nncc3ccccc23)CC1)c1c[nH]c2c(Br)ncc(F)c12 [Example 92] | < 1000
26 | O=C(C(=O)N1CCN(c2nncc3ccccc23)CC1)c1c[nH]c2c(-c3cn[nH]c3)ncc(F)c12 [Example 93] | < 1000
27 | O=C(C(=O)N1CCN(c2ncnc3ccccc23)CC1)c1c[nH]c2c(-c3cc[nH]n3)ncc(F)c12 [Example 94] | < 1000
28 | O=C(C(=O)N1CCN(c2ncnc3ccccc23)CC1)c1c[nH]c2c(-c3cn[nH]c3)ncc(F)c12 [Example 95] | < 1000
29 | COc1cnc(-c2cc[nH]n2)c2[nH]cc(C(=O)C(=O)N3CCN(c4ncnc5ccccc45)CC3)c12 [Example 96] | < 1000
